Patent US20250162989A1, “USP30 INHIBITORS AND USES THEREOF” (Vincere Biosciences, Inc., priority 2021, published 2025)
Like-named read-outs stand apart in the source and are kept apart here.

Key:
USP30 = USP30 (Homo sapiens (Human), UniProt Q70CQ3); assay: Dundee MALDI-TOF mass spectrometry assay (K48-linked diubiquitin cleavage); format: biochemical; conditions: USP30 25 ng/μl, K48-linked diubiquitin 5.6 μM
Procedure: USP30 was diluted in a buffer containing 40 mM Tris, 0.01% BSA, 1 mM DTT and K48 in 40 mM Tris, 0.01% BSA.
The compounds were pre-incubated with the USP30 for 5 mins at room temp before the K48 dimer addition. The assay mixture was then incubated for 45 mins at room temp. The assay was stopped by the addition of TFA to a final concentration of 2% (v/v).
Acidified samples of the DUB assays were mixed with 0.5 mM 15N-ubiquitin and then with one part of 2% (v/v) TFA and one part of 2.5 DHAP matrix solution (7.6 mg of 2.5 DHAP in […] ethanol and […] of an aqueous 12 mg ml 1 diammonium hydrogen citrate).

[1] = biological target: recombinant USP30 (amino acids 57-517 of the human sequence) (Homo sapiens (Human), UniProt Q70CQ3); assay: In vitro USP30 biochemical assay (Ubiquitin-Rhodamine substrate); conditions: fluorescence
Chain of recombinant USP30 (amino acids 57-517 of the human sequence) (Q70CQ3 57-517): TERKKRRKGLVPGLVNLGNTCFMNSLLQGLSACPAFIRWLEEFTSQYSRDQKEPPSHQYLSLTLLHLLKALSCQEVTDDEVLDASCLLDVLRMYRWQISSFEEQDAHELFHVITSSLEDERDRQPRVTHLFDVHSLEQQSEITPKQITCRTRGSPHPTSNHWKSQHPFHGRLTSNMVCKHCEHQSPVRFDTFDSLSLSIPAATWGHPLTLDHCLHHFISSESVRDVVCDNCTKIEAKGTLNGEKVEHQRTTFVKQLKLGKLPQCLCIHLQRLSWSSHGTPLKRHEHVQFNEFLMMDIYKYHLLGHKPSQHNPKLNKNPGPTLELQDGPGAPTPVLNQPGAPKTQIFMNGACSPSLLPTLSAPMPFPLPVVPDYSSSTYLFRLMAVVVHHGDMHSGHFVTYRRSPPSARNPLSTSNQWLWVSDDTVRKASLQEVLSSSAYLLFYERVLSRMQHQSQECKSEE
Procedure: In vitro biochemical assay to establish the potency of compounds for USP30 inhibition: a 384-well plate assay using a fluorophore tagged substrate of USP30 was used for in vitro screening of compounds. Each compound was tested at
10 different concentrations (0.5 to 10,000 nM) in duplicate wells. […] Data were analyzed using Graph Pad Prism software with a four-parameter (floating slope) fit to log concentration data to determine IC50s.

[2] = test system: Tom20 loss in differentiated RenCell VM; assay: In-cell Tom20 loss assay; format: cell-based; conditions: 20 h after compound addition
Procedure: To evaluate Tom20 loss following treatment with compounds and/or antimycin/oligomycin, a 96-well plate assay was performed on differentiated RenCell VM. These were seeded into laminin-coated 96-well plates at 5000 cells/well in normal growth medium (ReNcell NSC maintenance medium+20 ng/ml FDF-2 and 20 ng/ml EGF). After 3 days, growth medium was replaced with differentiation medium (ReNCell NSC medium+0.1 mM dibutyryl cAMP and 2 ng/ml GDNF). On days 1 and 4 following addition of differentiation medium, the media was removed and replaced with fresh differentiation medium. […] After again washing with PBS, cells were imaged using GE INCell 6000 at 40× and quantified using HCA-based quantification algorithm of fluorescence density×area normalized to the number of nuclei.

Kinetic solubility = format: physicochemical; conditions: 100 mM PBS, 1 hour at room temperature
Procedure: To 396 μL of a 100 mM phosphate buffered saline (PBS) was added 4 μL of a 10 mM stock solution of the compound. The mixture was shaken at 1000 rpm for 1 hour at room temperature. […] Compound concentration was calculated by comparison to a standard calibration curve. The assay was done in duplicate. The results are reported in μMol.

[3] = Metabolic stability and intrinsic clearance in liver microsomes (human); format: in vitro ADME; conditions: 37° C.
Procedure: (§1) Test compounds were incubated with microsomes supplemented with co-factors at 37° C. Typical conditions were: compound concentration of 1 μM and 5 sampling time-points (0, 15, 30, 45 and 60 minutes), in duplicates. At each time-point, the reactions were terminated by the addition of organic solvent. The samples were centrifuged and the parent compound concentration was evaluated by LC-MS/MS measurements.

[4] = Metabolic stability and intrinsic clearance in liver microsomes (rat); format: in vitro ADME; conditions: 37° C.
Procedure: as §1

[5] = Metabolic stability and intrinsic clearance in liver microsomes (mouse); format: in vitro ADME; conditions: 37° C.
Procedure: as §1

Caco-2 cells = assay: Caco-2 permeability screening assay; format: in vitro ADME; conditions: Caco-2, 10 μM, […] at 37° C.
[6] = […] recombinant USP30, 25 nM Ubiquitin-Rhodamine
[7] = 1.5 nM recombinant USP30, 25 nM Ubiquitin-Rhodamine

Chain of USP30 (Q70CQ3 whole entry): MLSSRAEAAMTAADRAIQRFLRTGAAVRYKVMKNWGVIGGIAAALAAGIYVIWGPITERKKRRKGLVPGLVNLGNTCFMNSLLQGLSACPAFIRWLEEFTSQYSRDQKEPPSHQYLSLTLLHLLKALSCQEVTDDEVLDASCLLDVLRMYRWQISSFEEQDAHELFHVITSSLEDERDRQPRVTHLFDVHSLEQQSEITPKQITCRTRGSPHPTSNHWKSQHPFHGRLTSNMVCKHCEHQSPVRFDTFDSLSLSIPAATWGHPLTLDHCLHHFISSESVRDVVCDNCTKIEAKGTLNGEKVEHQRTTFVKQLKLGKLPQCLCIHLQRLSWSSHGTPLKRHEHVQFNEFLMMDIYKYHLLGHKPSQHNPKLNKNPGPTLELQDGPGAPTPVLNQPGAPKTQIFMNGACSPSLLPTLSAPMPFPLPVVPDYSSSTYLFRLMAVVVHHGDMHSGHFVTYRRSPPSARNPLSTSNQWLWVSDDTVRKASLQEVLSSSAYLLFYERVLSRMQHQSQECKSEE

Row | IC50 [1, 6] | IC50 [1, 7] | Kinetic Solubility (μMol) (Kinetic solubility) | SMILES | other results
1 | < 0.05 µM |  |  | CC(C)C[C@H](NC(=O)c1ccc(F)cc1)C(=O)Nc1ccc(S(=O)(=O)NC(C)(C)C)cc1 [Compound I-11] | IC50 [2]: < 500 nM
2 |  | 0.05 to 1 µM | A (solubility of ≥75.0 μMol) | CCN1CCC(C[C@H](NC(=O)c2ccc(F)cc2)C(=O)Nc2ccc(S(=O)(=O)NC(C)(C)C)cc2)CC1 [Compound I-42] | 
3 |  | 0.05 to 1 µM | D (solubility of <1.0 μMol) | CC(C)(CCO)NS(=O)(=O)c1ccc(NC(=O)[C@H](Cc2ccc(-c3ccccc3)cc2)NC(=O)c2ccc(F)cc2)cc1 [Compound I-59] | 
4 |  | 0.05 to 1 µM | D (solubility of <1.0 μMol) | CC(C)(C)NS(=O)(=O)c1ccc(NC(=O)[C@H](Cc2ccc(-c3ccccc3)cc2)NC(=O)c2ccc(F)cc2)cc1 [Compound I-60] | 
5 | < 0.05 µM |  | A (solubility of ≥75.0 μMol) | CC(C)(C)NS(=O)(=O)c1ccc(NC(=O)[C@H](CC2CCNCC2)NC(=O)c2ccc(F)cn2)cc1 [Compound I-175, (S)—N-(1-((4-(N-(tert-butyl)sulfamoyl)phenyl)amino)-1-oxo-3-(piperidin-4-yl)propan-2-yl)-5-fluoropicolinamide] | IC50 (USP30; read-out: USP30 IC50 μM (avg)): < 0.05 µM

Second part, the compound before the results:

Row | SMILES | IC50 [1, 6] | IC50 [1, 7] | Kinetic Solubility (μMol) (Kinetic solubility) | other results
6 | CC(C)(C)NS(=O)(=O)c1ccc(NC(=O)[C@H](CC2CCOCC2)NC(=O)c2ccc(F)cc2)cc1 [Compound I-1] | < 0.05 µM |  |  | IC50 (USP30; read-out: IC50): < 0.05 µM; IC50 [2]: < 500 nM
7 | COc1cc(NC(=O)[C@H](CC2CCOCC2)NC(=O)c2ccc(F)cc2)ccc1S(=O)(=O)NC1COC1 [Compound I-3] |  | 0.05 to 1 µM | A (solubility of ≥75.0 μMol) | half-life at 1 μM [3]: 2 to 6 h; half-life at 1 μM [4]: ≥ 6 h; half-life at 1 μM [5]: 0.25 to 2 h
8 | CC(C)C[C@H](NC(=O)c1ccc(F)cc1)C(=O)Nc1ccc(S(=O)(=O)NC(C)(C)CCO)cc1 [Compound I-20, (S)-4-fluoro-N-(1-((4-(N-(4-hydroxy-2-methylbutan-2-yl)sulfamoyl)phenyl)amino)-4-methyl-1-oxopentan-2-yl)benzamide] |  | 0.05 to 1 µM | B (solubility of ≥50.0 μMol and <75.0 μMol) | 
9 | CC(C)CC[C@H](NC(=O)c1ccc(F)cc1)C(=O)Nc1ccc(S(=O)(=O)NC(C)(C)C)cc1 [Compound I-23] | < 0.05 µM |  | D (solubility of <1.0 μMol) | 
10 | CN1CCC(C[C@H](NC(=O)c2ccc(F)cc2)C(=O)Nc2ccc(S(=O)(=O)NC(C)(C)C)cc2)CC1 [Compound I-41] |  | 0.05 to 1 µM | A (solubility of ≥75.0 μMol) | 
11 | CC(C)(C)NS(=O)(=O)c1ccc(NC(=O)[C@@H](NC(=O)c2ccc(F)cc2)C(C)(C)c2ccccc2)cc1 [Compound I-61] |  | 0.05 to 1 µM | D (solubility of <1.0 μMol) | 
12 | CC(C)(CO)NS(=O)(=O)c1ccc(NC(=O)[C@@H](NC(=O)c2ccc(F)cc2)C(C)(C)c2ccccc2)cc1 [Compound I-62] |  | 1 to 10 µM | C (solubility ≥1.0 μMol and <50.0 μMol) | 
13 | O=C(N[C@@H](Cc1ccccc1)C(=O)Nc1ccc(S(=O)(=O)NC2COC2)c(O)c1)c1ccc(F)cc1 [Compound I-66] |  | 0.05 to 1 µM | B (solubility of ≥50.0 μMol and <75.0 μMol) | IC50 (USP30; read-out: IC50): < 0.05 µM
14 | CN1CCC(C[C@H](NC(=O)c2ccc(F)cc2)C(=O)Nc2ccc(S(=O)(=O)NC(C)(C)C)nc2)CC1 [Compound I-78] |  | 0.05 to 1 µM | A (solubility of ≥75.0 μMol) | IC50 (USP30; read-out: USP30 IC50 μM (avg)): < 0.05 µM
15 | CC(C)(C)NS(=O)(=O)c1ccc(NC(=O)[C@H](CC2CCCCC2)NC(=O)c2ccc(F)cc2)cc1 [Compound I-294] | < 0.05 µM |  | C (solubility ≥1.0 μMol and <50.0 μMol) | Half-life in human microsomes ([3]; 1 μM): D (half-life of <15 minutes); Half-life in rat microsomes ([4]; 1 μM): D (half-life of <15 minutes); Half-life in mouse microsomes ([5]; 1 μM): D (half-life of <15 minutes); Efflux Ratio (Papp B>A/Papp A>B) (Caco-2 cells): B (efflux ratio >2 and ≤6); Papp(A-B) (10 − 6, cm/sec) (Caco-2 cells; apical to basolateral): 1.8 10 − 6, cm/sec
